Earlier results on one compound are cited in publication PMC1403760 (BMC Pharmacology, 2006).

For the data set, the system named is HEK cells. Further details: method as in PMID 12238779. Conditions: in these (HEK) cells; read-out: EC50 of forskolin.

Usually EC50 stands for the concentration giving half of the maximal effect. Regarding `C=C[C@@]1(C)CC(=O)[C@]2(O)[C@@]3(C)[C@@H](O)CCC(C)(C)[C@@H]3[C@H](O)[C@H](OC(C)=O)[C@@]2(C)O1` [forskolin], the EC50 was 10 µM.
